# Test system: SARS-CoV-2
# Test: microbe, parasite or virus in culture
# Settings: Severe acute respiratory syndrome coronavirus 2, Vero C1008, 48 h
SMILES,IC50 [µM],IC50 (read-out: pIC50 (converted)) [µM]
CC[C@H]1OC(=O)[C@H](C)[C@@H](O[C@H]2C[C@@](C)(OC)[C@@H](O)[C@H](C)O2)[C@H](C)[C@@H](O[C@@H]2O[C@H](C)C[C@H](N(C)C)[C@H]2OC(C)=O)[C@](C)(O)C[C@@H](C)C(=O)[C@H](C)[C@@H](O)[C@]1(C)O [2'-O-ACETYLERYTHROMYCIN A],> 20,> 20
CC/C(=C(\c1ccc(O)cc1)c1ccc(OCCN(C)C)cc1)c1ccccc1 [AFIMOXIFENE],> 20,> 20
Clc1ccc(Cn2c(CN3CCCC3)nc3ccccc32)cc1 [CLEMIZOLE],> 20,> 20
c1cnc2cc3c(cc2n1)[C@@H]1CNC[C@H]3C1 [VARENICLINE],> 20,> 20
C[C@@H]1C[C@H]2[C@@H]3C[C@H](F)C4=CC(=O)C=C[C@]4(C)[C@@]3(F)[C@@H](O)C[C@]2(C)[C@@]1(O)C(=O)CO [FLUMETHASONE],> 20,> 20
O=C(O)c1ccccc1Nc1cccc(OCc2ccc3ccccc3n2)c1 [SR-2640],> 20,> 20
O=C1Nc2ccccc2C1(c1ccc(O)cc1)c1ccc(O)cc1 [OXYPHENISATINE],> 20,> 20
COc1ccccc1N1CCNCC1,> 20,> 20
O=C(O[C@@H]1Cc2c(O)cc(O)cc2O[C@H]1c1cc(O)c(O)c(O)c1)c1cc(O)c(O)c(O)c1 [GALLOCATECHIN GALLATE],> 20,> 20
O=[N+]([O-])OCC(CO[N+](=O)[O-])O[N+](=O)[O-] [NITROGLYCERIN],> 20,> 20
Cc1cccc(C)c1NC(=O)c1cc(S(N)(=O)=O)c(Cl)cc1O [XIPAMIDE],> 20,> 20
CC(C)OC(=O)[C@H](C)NP(=S)(OC[C@H]1O[C@@H](n2ccc(=O)[nH]c2=O)[C@](C)(O)[C@@H]1O)Oc1ccccc1 (stereo partly specified) [VX-135],> 20,> 20
C[N+](C)(C)CCCCC[N+](C)(C)C [PENTAMETHONIUM],> 20,> 20
CCCc1c2oc(C(=O)O)cc(=O)c2cc2c(=O)cc(C(=O)O)n(CC)c12 [NEDOCROMIL],> 20,> 20
CC(CN(C)C)CN1c2ccccc2OCOc2ccc(Cl)cc21 (stereo unspecified) [TRABOXOPINE],> 20,> 20
COc1cc2[nH]c(C)c(CCN3CCN(c4ccccc4OC)CC3)c2cc1OC [MILIPERTINE],> 20,> 20
CCN(CC)CCOC(c1ccccc1)c1ccccc1,> 20,> 20
NC1(C(=O)N[C@@H](CCO)c2ccc(Cl)cc2)CCN(c2nc[nH]c3nccc2-3)CC1 [CAPIVASERTIB],> 20,> 20
O=C(O)CN1C(=O)c2cccc3cccc(c23)C1=O [ALRESTATIN],> 20,> 20
CCc1cc(Nc2nc(-c3ccc(-n4cnc(C)c4)c(F)c3)cs2)c(C)cc1C,> 20,> 20
O=C1c2ccccc2C(=O)C1c1ccccc1 [PHENINDIONE],> 20,> 20

SMILES,IC50 [µM],IC50 (read-out: pIC50 (converted)) [µM]
CN(C)CCOC(c1ccc(Cl)cc1)c1ccccn1 (stereo unspecified) [CARBINOXAMINE],> 20,> 20
CCc1c(C(=O)c2cc(C)cc(C)c2)n(CC2CC=CC2)c(=O)[nH]c1=O,> 20,> 20
CCCC(CCC)C(=O)O [VALPROIC ACID],> 20,> 20
CCCC(=O)c1ccc2c(c1)N(CCCN1CCN(C)CC1)c1ccccc1S2 [BUTAPERAZINE],> 20,> 20
COc1ccc2c(c1)c(CC(=O)OCC(=O)O)c(C)n2C(=O)c1ccc(Cl)cc1 [ACEMETACIN],> 20,> 20
C=CC(C)(C)c1cc(/C=C/C(=O)c2ccc(O)cc2)c(OC)cc1O [LICOAGROCHACONE A],> 20,> 20
CN(C(=O)CO/N=C(/c1ccccc1)c1ccc2c(c1)CN1CC(=O)NC1=N2)C1CCCCC1,> 20,> 20
CCCCC1C(=O)NC(=O)N(C2CCCCC2)C1=O (stereo unspecified) [BUCOLOME],> 20,> 20
CN1CCN(CCOc2cc(OC3CCOCC3)c3c(Nc4c(Cl)ccc5c4OCO5)ncnc3c2)CC1 [SARACATINIB],> 20,> 20
Cc1ccnc(N)c1,> 20,> 20
CNC(=O)Oc1ccc2c(c1)[C@]1(C)CCN(C)C1N2C (stereo partly specified),> 20,> 20
CC12CCC3C(CC=C4CC(O)CCC43C)C1CCC2=O (stereo unspecified),> 20,> 20
CN1c2ccccc2Sc2ccc(CC(=O)O)cc21 [METIAZINIC ACID],> 20,> 20
Cc1cn(C2C=CC(CO)O2)c(=O)[nH]c1=O (stereo unspecified),> 20,> 20
CC1(C)C(=O)Nc2cc3[nH]c(-c4ccncc4)nc3cc21 [ADIBENDAN],> 20,> 20
CN(C)CC/C=C1\c2ccccc2CN(C)c2ccccc21,> 20,> 20
COc1cccc(-c2cc(F)c(Nc3ncccc3C(=O)O)c(F)c2)c1 [ASLAN-003],> 20,> 20
CN1C(=O)[C@@H](NC(=O)c2n[nH]c(Cc3ccccc3)n2)COc2ccccc21 [GSK2982772],> 20,> 20
Cc1cc(C)cc(OCC2CNC(=O)O2)c1 (stereo unspecified) [METAXALONE],> 20,> 20
Cn1c(=O)c2c(ncn2CC2OCCO2)n(C)c1=O [DOXOFYLLINE],> 20,> 20
O=C(c1ccc(Nc2ccnc3cc(C(F)(F)F)ccc23)cc1)N1CCN(S(=O)(=O)c2ccc(F)cc2)CC1 [LOSULAZINE],> 20,> 20

SMILES,IC50 [µM],IC50 (read-out: pIC50 (converted)) [µM]
C[C@@H]1CN(Cc2ccc(F)cc2)CCN1C(=O)COc1ccc(Cl)cc1NC(N)=O [BX 471 FREE BASE],> 20,> 20
COc1c(OC)c(OC(C)=O)c2cc(Cl)ccc2c1OC(C)=O [LONAPALENE],> 20,> 20
COc1ccc(OC)c(C(O)C(C)NC(C)(C)C)c1 (stereo unspecified) [BUTOXAMINE],> 20,> 20
CS(=O)(=O)CCC#N,> 20,> 20
O=P(O)(O)OC(CO)CO [GLYCERYLPHOSPHATE],> 20,> 20
COc1ccc(C(=O)N2CCCC2=O)cc1,> 20,> 20
CCC12CCCN3CCc4c(n(c5ccccc45)C(O)(C(=O)OC)C1)C32 (stereo unspecified),> 20,> 20
CNC(=O)c1ccc(Nc2ncc(C(F)(F)F)c(NCc3nccnc3N(C)S(C)(=O)=O)n2)cc1 [DEFACTINIB],> 20,> 20
Cc1cccc(N(C)C(=S)Oc2ccc3c(c2)C2CCC3C2)c1 (stereo unspecified) [TOLCICLATE],> 20,> 20
C[C@]12CC[C@@H]3c4ccc(O)cc4CC[C@H]3[C@@H]1C[C@@H](O)[C@@H]2O [ESTRIOL],> 20,> 20
CCC(COC(=O)c1cc(OC)c(OC)c(OC)c1)(c1ccccc1)N(C)C (stereo unspecified) [TRIMEBUTINE],> 20,> 20
CC1(C)N=C(N)N=C(N)N1c1ccc(Cl)cc1 [CYCLOGUANIL],> 20,> 20
Cc1nc(C(=O)N2CCCC[C@H]2CNC(=O)c2cccc3occc23)c(-c2ccc(F)cc2)s1 [SB-649868],> 20,> 20
Cc1c(Cl)cccc1Nc1ncccc1C(=O)O [CLONIXIN],> 20,> 20
CC(=O)N[C@@H]1[C@@H](O)[C@@H](O)[C@@H](CO)O[C@@H]1O,> 20,> 20
C[C@H](CCC(=O)O)[C@H]1CC[C@H]2[C@@H]3CCC4C[C@H](O)CC[C@]4(C)[C@H]3CC[C@]12C (stereo partly specified),> 20,> 20
CN(C)Cc1nccn1-c1ccc(NC(=O)c2cc(C(F)(F)F)nn2-c2ccc3onc(N)c3c2)c(F)c1 [RAZAXABAN],> 20,> 20
C[C@@H](N)Cc1c[nH]cn1,> 20,> 20
COC(=O)[C@H](C)N[P@](=O)(OC[C@H]1O[C@@H](n2cc(/C=C/Br)c(=O)[nH]c2=O)C[C@@H]1O)Oc1ccccc1,> 20,> 20
CCN(CC)CCNC(=O)N(CCS(=O)(=O)c1ccccc1)C(C)C [SURICAINIDE],> 20,> 20
C=C(CC)C(=O)c1ccc(OCC(=O)O)c(Cl)c1Cl [ETHACRYNIC ACID],> 20,> 20

# From ChEMBL document CHEMBL4651402, “Screening of ~5500 FDA-approved drugs and clinical candidates for anti-SARS-CoV-2 activity” (2021)
